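Tested at 5 concentrations; 48 h exposure; 96-well plates; endpoints linearly interpolated, else capped at highest concentration. GI50: concentration for 50% inhibition of growth. TGI marks complete inhibition of growth.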
Experiments:
Test in all cases: inhibition of tumour cell growth, NCI panel, 48 h
[1] = tested on: 786-0 renal
[2] = tested on: A498 renal
[3] = tested on: A549 NSCLC
[4] = tested on: ACHN renal
[5] = tested on: BT-549 breast
[6] = tested on: CAKI-1 renal
[7] = tested on: CCRF-CEM leukemia
[8] = tested on: COLO 205 colon
[9] = tested on: DU-145 prostate
[10] = tested on: EKVX NSCLC
[11] = tested on: HCC-2998 colon
[12] = tested on: HCT-116 colon
[13] = tested on: HCT-15 colon
[14] = tested on: HL-60(TB) leukemia
[15] = tested on: HOP-62 NSCLC
[16] = tested on: HOP-92 NSCLC
[17] = tested on: HS 578T breast
[18] = tested on: HT29 colon
[19] = tested on: IGROV1 ovarian
[20] = tested on: K-562 leukemia
[21] = tested on: KM12 colon
[22] = tested on: LOX IMVI melanoma
[23] = tested on: M14 melanoma
[24] = tested on: MALME-3M melanoma
[25] = tested on: MCF7 breast
[26] = tested on: MDA-MB-231 breast
[27] = tested on: MDA-MB-435
[28] = tested on: MOLT-4 leukemia
[29] = tested on: NCI-H226 lung
[30] = tested on: NCI-H23 lung
[31] = tested on: NCI-H460 lung
[32] = tested on: NCI-H522 lung
[33] = tested on: NCI/ADR-RES ovarian
[34] = tested on: OVCAR-3 ovarian
[35] = tested on: OVCAR-4 ovarian
[36] = tested on: OVCAR-5 ovarian
[37] = tested on: OVCAR-8 ovarian
[38] = tested on: PC-3 prostate
[39] = tested on: RPMI-8226 leukemia
[40] = tested on: RXF 393 renal
[41] = tested on: SF-268 CNS
[42] = tested on: SF-295 CNS
[43] = tested on: SF-539 CNS
[44] = tested on: SK-MEL-2 melanoma
[45] = tested on: SK-MEL-28 melanoma
[46] = tested on: SK-MEL-5 melanoma
[47] = tested on: SK-OV-3 ovarian
[48] = tested on: SN12C renal
[49] = tested on: SNB-19 CNS
[50] = tested on: SNB-75 CNS
[51] = tested on: SR leukemia
[52] = tested on: SW-620 colon
[53] = tested on: T-47D breast
[54] = tested on: TK-10 renal
[55] = tested on: U251 CNS
[56] = tested on: UACC-257 melanoma
[57] = tested on: UACC-62 melanoma
[58] = tested on: UO-31 renal

Cc1ccc(/C(=C/C=C(/C#N)C(N)=O)Sc2ncnn2C)cc1
GI50 [1]: 4.35 µM
TGI [1]: 10.9 µM
TGI [2]: 3.4 µM
GI50 [3]: 21.6 µM
TGI [3]: 54.4 µM
GI50 [4]: 2.94 µM
TGI [4]: 14.2 µM
GI50 [5]: 1.84 µM
TGI [5]: 9.57 µM
GI50 [6]: 2.73 µM
TGI [6]: 19.6 µM
GI50 [7]: 0.941 µM
TGI [7]: > 70.8 µM
GI50 [8]: 15.4 µM
TGI [8]: 35.2 µM
GI50 [9]: 6.61 µM
TGI [9]: 18.2 µM
GI50 [10]: 1.13 µM
TGI [10]: 14.6 µM
GI50 [11]: 13 µM
TGI [11]: 26.4 µM
GI50 [12]: 4.57 µM
TGI [12]: 15.3 µM
GI50 [13]: 4.96 µM
TGI [13]: 19.9 µM
GI50 [14]: 12.3 µM
TGI [14]: 83 µM
GI50 [15]: 13.1 µM
TGI [15]: 27.7 µM
GI50 [16]: 14.1 µM
TGI [16]: 30.5 µM
GI50 [17]: 20.1 µM
TGI [17]: 50.1 µM
GI50 [18]: 13.3 µM
TGI [18]: 48.6 µM
GI50 [19]: 18 µM
TGI [19]: > 55.1 µM
GI50 [20]: 5.48 µM
TGI [20]: > 100 µM
GI50 [21]: 19.9 µM
TGI [21]: 44.3 µM
GI50 [22]: 0.227 µM
TGI [22]: 1.4 µM
GI50 [23]: 6.4 µM
TGI [23]: 19.9 µM
GI50 [24]: 2.03 µM
TGI [24]: 14.7 µM
GI50 [25]: 3.49 µM
TGI [25]: > 55.3 µM
GI50 [26]: 9.57 µM
TGI [26]: 22.9 µM
GI50 [27]: 3.2 µM
TGI [27]: 24.7 µM
GI50 [28]: 10.1 µM
TGI [28]: > 100 µM
GI50 [29]: 7.5 µM
TGI [29]: 25.9 µM
GI50 [30]: 4.16 µM
TGI [30]: 15.8 µM
GI50 [31]: 4.66 µM
TGI [31]: 48.2 µM
GI50 [32]: 2.6 µM
TGI [32]: > 52.5 µM
GI50 [33]: 7.25 µM
TGI [33]: > 69.6 µM
GI50 [34]: 5.95 µM
TGI [34]: 18.1 µM
GI50 [35]: 24.4 µM
TGI [35]: > 72.5 µM
GI50 [36]: 8.89 µM
TGI [36]: 23.5 µM
GI50 [37]: 15.8 µM
TGI [37]: 43.8 µM
GI50 [38]: 11.4 µM
TGI [38]: 25.5 µM
GI50 [39]: 2.4 µM
TGI [39]: > 22.9 µM
GI50 [40]: 6.86 µM
TGI [40]: 25 µM
GI50 [41]: 6.84 µM
TGI [41]: 25.6 µM
GI50 [42]: 16.4 µM
TGI [42]: 41.5 µM
GI50 [43]: 6.19 µM
TGI [43]: 20.4 µM
GI50 [44]: > 37.6 µM
TGI [44]: > 55.7 µM
GI50 [45]: 14.9 µM
TGI [45]: 35.7 µM
GI50 [46]: 6.6 µM
TGI [46]: 15.1 µM
GI50 [47]: 23.1 µM
TGI [47]: > 62.3 µM
GI50 [48]: 7.89 µM
TGI [48]: 23.4 µM
GI50 [49]: 22 µM
TGI [49]: 50.2 µM
GI50 [50]: 15.6 µM
TGI [50]: 30.8 µM
GI50 [51]: 2.51 µM
TGI [51]: > 35.2 µM
GI50 [52]: 3.87 µM
TGI [52]: 15.6 µM
GI50 [53]: 18.7 µM
TGI [53]: 40.1 µM
GI50 [54]: 14.2 µM
TGI [54]: 29.1 µM
GI50 [55]: 3.47 µM
TGI [55]: 19.1 µM
GI50 [56]: 17.6 µM
TGI [56]: 33.6 µM
GI50 [57]: 11 µM
TGI [57]: 24.6 µM
GI50 [58]: 5.53 µM
TGI [58]: > 65.4 µM

CCN1CCN(Cc2ccc(NC(=O)c3nc4ccc5[nH]ncc5c4c4c3CCCC4)cc2C(F)(F)F)CC1
GI50 [1]: 0.886 µM
TGI [1]: 1.65 µM
GI50 [2]: 6.89 µM
TGI [2]: 14.4 µM
GI50 [3]: 1.32 µM
TGI [3]: 3.8 µM
GI50 [4]: 0.861 µM
TGI [4]: 1.56 µM
GI50 [5]: 6.33 µM
TGI [5]: 13 µM
GI50 [6]: 0.976 µM
TGI [6]: 2.42 µM
GI50 [7]: 1.15 µM
TGI [7]: 3.26 µM
GI50 [8]: 0.861 µM
TGI [8]: 1.68 µM
GI50 [9]: 1.25 µM
TGI [9]: 2.98 µM
GI50 [10]: 2.09 µM
TGI [10]: 8.81 µM
GI50 [11]: 0.816 µM
TGI [11]: 1.59 µM
GI50 [12]: 0.87 µM
TGI [12]: 1.7 µM
GI50 [13]: 0.95 µM
TGI [13]: 1.96 µM
GI50 [14]: 0.983 µM
TGI [14]: 1.99 µM
GI50 [15]: 0.815 µM
TGI [15]: 1.65 µM
GI50 [16]: 1.61 µM
TGI [16]: 7.65 µM
GI50 [17]: 0.969 µM
TGI [17]: 2.13 µM
GI50 [18]: 0.923 µM
TGI [18]: 1.91 µM
GI50 [19]: 0.892 µM
TGI [19]: 1.72 µM
GI50 [20]: 0.827 µM
TGI [20]: 2.12 µM
GI50 [21]: 0.988 µM
TGI [21]: 1.94 µM
GI50 [22]: 0.836 µM
TGI [22]: 1.55 µM
GI50 [23]: 0.885 µM
TGI [23]: 1.8 µM
GI50 [24]: 0.827 µM
TGI [24]: 1.59 µM
GI50 [25]: 0.884 µM
TGI [25]: 1.84 µM
GI50 [26]: 0.879 µM
TGI [26]: 1.66 µM
GI50 [27]: 0.918 µM
TGI [27]: 1.67 µM
GI50 [28]: 1.01 µM
TGI [28]: 2.28 µM
GI50 [29]: 2.98 µM
TGI [29]: 13.6 µM
GI50 [30]: 1.76 µM
TGI [30]: 7.21 µM
GI50 [31]: 0.935 µM
TGI [31]: 1.78 µM
GI50 [32]: 0.882 µM
TGI [32]: 1.85 µM
GI50 [33]: 1.08 µM
TGI [33]: 2.82 µM
GI50 [34]: 0.997 µM
TGI [34]: 1.92 µM
GI50 [35]: 1.07 µM
TGI [35]: 2.63 µM
GI50 [36]: 1.48 µM
TGI [36]: 5.46 µM
GI50 [37]: 1.01 µM
TGI [37]: 2.05 µM
GI50 [38]: 1.3 µM
TGI [38]: 4.2 µM
GI50 [39]: 1.07 µM
TGI [39]: 2.61 µM
GI50 [40]: 0.738 µM
TGI [40]: 1.43 µM
GI50 [41]: 2.3 µM
TGI [41]: 9.2 µM
GI50 [42]: 0.888 µM
TGI [42]: 1.8 µM
GI50 [43]: 0.87 µM
TGI [43]: 1.6 µM
GI50 [44]: 0.85 µM
TGI [44]: 1.9 µM
GI50 [45]: 0.899 µM
TGI [45]: 1.65 µM
GI50 [46]: 0.903 µM
TGI [46]: 1.63 µM
GI50 [47]: 7.25 µM
TGI [47]: 14.2 µM
GI50 [48]: 0.865 µM
TGI [48]: 1.63 µM
GI50 [49]: 0.931 µM
TGI [49]: 2.01 µM
GI50 [50]: 1.06 µM
TGI [50]: 7.17 µM
GI50 [51]: 1.19 µM
TGI [51]: 2.65 µM
GI50 [52]: 0.969 µM
TGI [52]: 1.89 µM
GI50 [53]: 0.854 µM
TGI [53]: 1.92 µM
GI50 [54]: 1.83 µM
TGI [54]: 6.79 µM
GI50 [55]: 0.883 µM
TGI [55]: 1.63 µM
GI50 [56]: 0.938 µM
TGI [56]: 1.84 µM
GI50 [57]: 0.922 µM
TGI [57]: 1.88 µM
GI50 [58]: 0.729 µM
TGI [58]: 1.4 µM

From PubChem BioAssay (NCI)
